In PMC5381274 (FEBS letters, 2016):

Columns and labels:
NCI H929 cells = assay: JC1 BH3 profiling, NCI H929; assay type: cell-based; details: Figure 4A
K562 cells = assay: JC1 BH3 profiling, K562; assay type: cell-based; details: Figure 4B

Ac-WSSAAQLTAARLKALGDELHQ-NH2 [HRK]
Mitochondrial depolarization in NCI H929 (BH3 profiling) (NCI H929 cells): not affected

CC[C@H](C)[C@H](NC(=O)[C@H](CCC(=O)O)NC(=O)[C@H](CC(=O)O)NC(=O)CNC(=O)[C@H](CC(C)C)NC(=O)[C@H](CCCNC(=N)N)NC(=O)[C@H](CCCNC(=N)N)NC(=O)[C@H](CC(C)C)NC(=O)CNC(=O)[C@H](CCC(N)=O)NC(=O)[C@@H](NC(=O)[C@H](CCSC)NC(=O)[C@H](Cc1c[nH]c2ccccc12)NC(=O)[C@@H](NC(=O)[C@H](CCC(=O)O)NC(=O)[C@@H]1CCCN1C(=O)[C@H](CCCNC(=N)N)NC(C)=O)[C@@H](C)CC)[C@@H](C)O)C(=O)N[C@@H](CC(N)=O)C(=O)N[C@@H](C)C(=O)N[C@@H](Cc1ccc(O)cc1)C(=O)N[C@@H](Cc1ccc(O)cc1)C(=O)N[C@@H](C)C(=O)N[C@@H](CCCNC(=N)N)C(N)=O [MS-1]
Mitochondrial depolarization in NCI H929 (BH3 profiling) (NCI H929 cells): mitochondrial depolarization was observed | Mitochondrial depolarization in K562 (BH3 profiling) (K562 cells): insensitive

CSCC[C@H](NC(=O)[C@H](CCCNC(=N)N)NC(=O)[C@H](CCCNC(=N)N)NC(=O)[C@H](CC(C)C)NC(=O)[C@H](CCC(=O)O)NC(=O)[C@H](CCCNC(=N)N)NC(=O)CNC(=O)[C@H](Cc1ccc(O)cc1)NC(=O)[C@H](CCCNC(=N)N)NC(=O)[C@H](CCC(N)=O)NC(=O)[C@H](C)NC(=O)[C@H](C)NC(=O)[C@H](Cc1c[nH]c2ccccc12)NC(=O)[C@H](CC(C)C)NC(C)=O)C(=O)N[C@@H](CO)C(=O)N[C@@H](CC(=O)O)C(=O)N[C@@H](CCC(=O)O)C(=O)N[C@@H](Cc1ccccc1)C(=O)N[C@@H](CCC(=O)O)C(=O)NCC(=O)N[C@@H](CO)C(=O)N[C@@H](Cc1ccccc1)C(=O)N[C@@H](CCCCN)C(=O)NCC(=O)N[C@@H](CC(C)C)C(N)=O [Bad]
Mitochondrial depolarization in NCI H929 (BH3 profiling) (NCI H929 cells): not affected
